Here are results for 18 compounds from patent US10144742B2 (Millennium Pharmaceuticals, Inc., priority 2014, dated 2018).

One assay has as its target hNAMPT protein (Homo sapiens (Human), UniProt P43490). In words: NAMPT enzyme assay (TR-FRET/HTRF, BodiPY ligand, anti 6His-Tb). It counts as binding. The following applies: for inhibition at 1 µM: NAMPT inhibition at compound concentration 1 μM, read-out: Percent Inhibition; for IC50: NAMPT inhibition, IC50 range class, read-out: IC50. An outline of the steps:
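Compound or DMSO was incubated for 1 h at room temperature, protected from light, with BodiPY ligand and hNAMPT labelled by terbium anti-6His antibody. The 520 nm to 486 nm emission ratio after 320 nm excitation gave inhibition versus vehicle, from which concentration-response curves yielded IC50.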

For another assay, the system named is PC3 cells. In words: PC3 growth inhibition (Cell-titer glo, 72 hours). The following applies: Homo sapiens, PC-3; compound concentration 1.667 μM; PC3 cells, 72 hours, Cell-titer glo; read-out: Percent Inhibition (PC3 growth inhibition). It is filed as cell-based. An outline of the steps: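 Compounds in AIM serum-free medium were applied for 72 h at 37 °C, 5% CO2 to PC3 cells plated overnight from RPMI1640 culture. Luminescence after 10 min CellTiter-Glo, normalised to DMSO, gave % viability at 1 μM or 1.667 μM, or GI50/LD50.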

Sequence of hNAMPT protein (P43490 whole entry): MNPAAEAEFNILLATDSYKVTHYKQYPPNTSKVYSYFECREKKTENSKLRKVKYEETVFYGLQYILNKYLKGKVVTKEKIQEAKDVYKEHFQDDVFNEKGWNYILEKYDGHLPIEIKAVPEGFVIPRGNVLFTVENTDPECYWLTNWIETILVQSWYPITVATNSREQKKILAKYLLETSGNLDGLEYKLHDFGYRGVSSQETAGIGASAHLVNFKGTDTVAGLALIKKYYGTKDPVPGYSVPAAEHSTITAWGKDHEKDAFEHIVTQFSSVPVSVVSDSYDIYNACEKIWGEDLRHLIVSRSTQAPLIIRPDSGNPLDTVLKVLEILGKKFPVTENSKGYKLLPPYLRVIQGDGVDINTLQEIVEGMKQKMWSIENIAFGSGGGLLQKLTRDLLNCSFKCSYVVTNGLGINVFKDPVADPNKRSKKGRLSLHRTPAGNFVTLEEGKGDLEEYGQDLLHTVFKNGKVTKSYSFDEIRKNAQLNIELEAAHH

Consider `N#Cc1ccc(F)c(-c2nc3cc(C(=O)NCCCc4ncc[nH]4)ccc3nc2-c2ccc(F)cc2)c1` [Compound I-501, 3-(5-cyano-2-fluorophenyl)-2-(4-fluorophenyl)-N-[3-(1H-imidazol-2-yl)propyl]quinoxaline-6-carboxamide], for which, at hNAMPT protein, the inhibition at 1 µM stood at 99% and the IC50 was less than 0.1 µM. For the same compound, the inhibition at 1.667 µM in the assay with PC3 cells came out at 2%.
With `O=C(NCCCc1ncc[nH]1)c1ccc2nc(-c3ccc(F)cc3)c(-c3ccc(F)c(Cl)c3)nc2c1` [Compound I-502, N-(3-(1H-imidazol-2-yl)propyl)-3-(3-chloro-4-fluorophenyl)-2-(4-fluorophenyl)quinoxaline-6-carboxamide], at hNAMPT protein, the inhibition at 1 µM came to 97% and the half-inhibitory concentration (IC50) was less than 0.1 µM. In addition, the inhibition at 1.667 µM in the assay with PC3 cells amounted to 2%.
In the case of `Cc1cnn(-c2nc3ccc(C(=O)NCCCc4ncc[nH]4)cc3nc2-c2ccc(F)cc2)c1` [Compound I-503, 3-(4-fluorophenyl)-N-[3-(1H-imidazol-2-yl)propyl]-2-(4-methyl-1H-pyrazol-1-yl)quinoxaline-6-carboxamide], on hNAMPT protein, the inhibition at 1 µM amounted to 84% and the IC50 lay within 0.1 to 0.5 µM. Moreover, the inhibition at 1.667 µM with PC3 cells worked out at 3%.
Taken in the same sequence, the figures for `O=C(NCCCc1ncc[nH]1)c1ccc2nc(-c3ccc(F)cc3)c(-c3sccc3Cl)nc2c1` [Compound I-504, 3-(3-chloro-2-thienyl)-2-(4-fluorophenyl)-N-[3-(1H-imidazol-2-yl)propyl]quinoxaline-6-carboxamide] were 93%, less than 0.1 µM and 3%.
For the compound `CN1CCCC1CCOc1nc2ccc(C(=O)NCCCc3ncc[nH]3)cc2nc1-c1ccc(F)cc1` (stereo not drawn) [Compound I-505, 3-(4-fluorophenyl)-N-[3-(1H-imidazol-2-yl)propyl]-2-[2-(1-methylpyrrolidin-2-yl)ethoxy]quinoxaline-6-carboxamide], at hNAMPT protein, the inhibition at 1 µM was more than 99% and the IC50 is less than 0.1 µM. Also, in the assay with PC3 cells, the inhibition at 1.667 µM stood at 3%.
Taken in the same sequence, the figures for `CC(C)Oc1nc2ccc(C(=O)NCc3cn4cccnc4n3)cc2nc1-c1ccc(F)cc1` [Compound I-506, 3-(4-Fluorophenyl)-N-(imidazo[1,2-a]pyrimidin-2-ylmethyl)-2-isopropoxyquinoxaline-6-carboxamide] were 78%, 0.1 to 0.5 µM and more than 99%.
In the same order, the values of `Cc1ccc(F)c(-c2nc3cc(C(=O)NCCCc4ncc[nH]4)ccc3nc2-c2ccc(F)cc2)c1` [Compound I-507, 3-(2-fluoro-5-methylphenyl)-2-(4-fluorophenyl)-N-[3-(1H-imidazol-2-yl)propyl]quinoxaline-6-carboxamide] are 97%, less than 0.1 µM and 2%.
On to `O=C(NCCCc1cn[nH]c1)c1ccc2nc(-c3ccc(F)cc3)c(-c3ccc(F)cc3)nc2c1` [Compound I-508, 2,3-bis(4-fluorophenyl)-N-[3-(1H-pyrazol-4-yl)propyl]quinoxaline-6-carboxamide], for which, at hNAMPT protein, the inhibition at 1 µM amounted to 73% and the IC50 fell in the range of 0.1 to 0.5 µM. In addition, the inhibition at 1.667 µM with PC3 cells was determined as 3%.
On to `CN(C)CCOc1nc2ccc(C(=O)NCCCc3ncc[nH]3)cc2nc1-c1ccc(F)cc1` [Compound I-509, 2-[2-(dimethylamino)ethoxy]-3-(4-fluorophenyl)-N-[3-(1H-imidazol-2-yl)propyl]quinoxaline-6-carboxamide], for which, at hNAMPT protein, the inhibition at 1 µM is 94% and the 50% inhibitory concentration (IC50) was less than 0.1 µM. In addition, the inhibition at 1.667 µM in the assay on PC3 cells was 3%.
In the same order, the values of `CN1CCCC(COc2nc3ccc(C(=O)NCCCc4ncc[nH]4)cc3nc2-c2ccc(F)cc2)C1` (stereo not drawn) [Compound I-510, 3-(4-fluorophenyl)-N-[3-(1H-imidazol-2-yl)propyl]-2-[(1-methylpiperidin-3-yl)methoxy]quinoxaline-6-carboxamide] are 98%, less than 0.1 µM and 2%.
As to `COc1cccc(-c2nc3cc(C(=O)NCCCc4ncc[nH]4)ccc3nc2OC(C)C)c1` [Compound I-511, N-[3-(1H-imidazol-2-yl)propyl]-2-isopropoxy-3-(3-methoxyphenyl)quinoxaline-6-carboxamide], at hNAMPT protein, the inhibition at 1 µM is more than 99% and the IC50 is less than 0.1 µM. For the same compound, in the assay with PC3 cells, the inhibition at 1.667 µM came out at 2%.
In the same order, the values of `COc1cc(F)cc(-c2nc3cc(C(=O)NCCCc4ncc[nH]4)ccc3nc2-c2ccc(F)cc2)c1` [Compound I-512, 3-(3-fluoro-5-methoxyphenyl)-2-(4-fluorophenyl)-N-[3-(1H-imidazol-2-yl)propyl]quinoxaline-6-carboxamide] are 92%, less than 0.1 µM and 2%.
Taken in the same sequence, the figures for `CN1CCC(COc2nc3ccc(C(=O)NCCCc4ncc[nH]4)cc3nc2-c2ccc(F)cc2)C1` (stereo not drawn) [Compound I-513, 3-(4-fluorophenyl)-N-[3-(1H-imidazol-2-yl)propyl]-2-[(1-methylpyrrolidin-3-yl)methoxy]quinoxaline-6-carboxamide] were 99%, less than 0.1 µM and 3%.
Taken in the same sequence, the figures for `O=C(NCCCc1ncc[nH]1)c1ccc2nc(OC3CCNCC3)c(-c3ccc(F)cc3)nc2c1` [Compound I-514, 3-(4-fluorophenyl)-N-[3-(1H-imidazol-2-yl)propyl]-2-(piperidin-4-yloxy)quinoxaline-6-carboxamide] were 97%, less than 0.1 µM and 3%.
Regarding `COc1cc(-c2nc3cc(C(=O)NCCCc4nnc[nH]4)ccc3nc2-c2ccc(F)cc2)c(F)cn1` [Compound I-515, 3-(5-fluoro-2-methoxypyridin-4-yl)-2-(4-fluorophenyl)-N-[3-(4H-1,2,4-triazol-3-yl)propyl]quinoxaline-6-carboxamide], on hNAMPT protein, the inhibition at 1 µM is 75% and the IC50 fell in the range of 0.1 to 0.5 µM. In addition, in the assay on PC3 cells, the inhibition at 1.667 µM was 1%.
In the same order, the values of `COc1cc(-c2nc3cc(C(=O)NCc4nc5cnccc5[nH]4)ccc3nc2-c2ccc(F)cc2)c(F)cn1` [Compound I-516, 3-(5-fluoro-2-methoxypyridin-4-yl)-2-(4-fluorophenyl)-N-(1H-imidazo[4,5-c]pyridin-2-ylmethyl)quinoxaline-6-carboxamide] are 93%, less than 0.1 µM and 1%.
In the same order, the values of `CCOc1cc(-c2nc3cc(C(=O)NCCCc4ncc[nH]4)ccc3nc2-c2ccc(F)cc2)c(F)cn1` [Compound I-517, 3-(2-ethoxy-5-fluoropyridin-4-yl)-2-(4-fluorophenyl)-N-[3-(1H-imidazol-2-yl)propyl]quinoxaline-6-carboxamide] are 76%, 0.1 to 0.5 µM and 1%.
In the case of `CC(C)Oc1cc(-c2nc3cc(C(=O)NCCCc4ncc[nH]4)ccc3nc2-c2ccc(F)cc2)c(F)cn1` [Compound I-518, 3-(5-fluoro-2-isopropoxypyridin-4-yl)-2-(4-fluorophenyl)-N-[3-(1H-imidazol-2-yl)propyl]quinoxaline-6-carboxamide], on hNAMPT protein, the inhibition at 1 µM worked out at 86% and the IC50 lay in the range of 0.1 to 0.5 µM. The inhibition at 1.667 µM with PC3 cells amounted to 1%.
